Test results: US20100210635A1, “RENIN INHIBITORS” (Takeda Pharmaceutical Company Limited, priority 2006, published 2010)

Biological target: T1, Recombinant human renin (Homo sapiens, UniProt P00797)
T1 construct: isolate the active form (residues 67-406); made in house; host or cells: FreeStyle 293-F cells (transient expression of pcDNA3.1(+)/hREN)
T1 sequence (P00797 67-406): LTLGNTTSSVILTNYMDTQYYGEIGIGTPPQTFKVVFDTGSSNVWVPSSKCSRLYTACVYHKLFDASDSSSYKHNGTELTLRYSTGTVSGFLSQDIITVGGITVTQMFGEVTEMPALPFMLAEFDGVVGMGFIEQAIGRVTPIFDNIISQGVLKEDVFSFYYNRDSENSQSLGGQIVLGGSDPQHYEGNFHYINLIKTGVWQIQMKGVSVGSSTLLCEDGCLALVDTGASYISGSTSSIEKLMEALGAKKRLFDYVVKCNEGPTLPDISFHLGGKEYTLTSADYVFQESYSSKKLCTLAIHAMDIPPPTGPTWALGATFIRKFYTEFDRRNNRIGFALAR
Experiment: In vitro enzymatic activity assay of Renin inhibitors (fluorescence, QXL520/HiLyteFluo488 peptide substrate)
Type: biochemical
Settings: recombinant human renin 3 nM, 1 μM substrate, 37° C., pH 7.4; values given as ranges; read-out: IC50 of Exemplified Compounds Against Renin
Description: Test compounds in varying concentrations may be reacted with recombinant human renin in the presence of substrate, e.g., QXL520-γ-Abu-Ile-His-Pro-Phe-His-Leu-Val-Ile-His-Thr-Lys (HiLyteFluo488)-Arg-OH (Anaspec, San Jose, Calif.). The reaction can be followed kinetically using fluorescence (excitation λ=485 nm; emission λ=538 nm). Inhibition constants (IC50) may be calculated by non-linear curve fitting of the compound concentrations and fluorescence intensities to the standard IC50 equation.
Solutions of test compounds in varying concentrations (<2 mM final concentration) are prepared in dimethyl sulfoxide (DMSO) and then diluted into assay buffer comprising 50 mM Hepes, 1 mM EDTA, 1 mM DTT, 0.1 mg/ml BSA, 0.01% Brij35, pH 7.4. Alternatively, the assay can be performed with a high BSA concentration, wherein the buffer contains an additional 2% BSA.
Recombinant human renin (3 nM final concentration) is added to the dilutions and pre-incubated with the compounds for 10 minutes at 37° C. As described in Examples A-C above, human Renin can be obtained by expressing preprorenin (residue 1-406) in mammalian cells, treating the prorenin (residues 24-406) contained in the culture supernatant with trypsin, and isolate the active form (residues 67-406). After pre-incubation, the reaction is initiated with 1 μM of substrate QXL520-γ-Abu-Ile-His-Pro-Phe-His-Leu-Val-Ile-His-Thr-Lys (HiLyteFluo488)-Arg-OH (Anaspec, San Jose, Calif.). The final DMSO in the assay is 5%. The total volume of the reaction mixture is 20 μL, which can be placed on Greiner 384-well small volume plates.
Renin activity may be determined via fluorescence (excitation λ=485 nm; emission λ=538 nm), e.g., on a Molecular Devices SPECTROmax GEMINI XPS. The fluorescence intensity is determined upon the addition of substrate and determined again after incubation at 37° C. for one hour. The fluorescence intensity of a blank (no inhibition) using vehicle alone is also determined. Renin activity is linearly proportional to the change in fluorescence observed (final−initial).
The percent inhibition of Renin at a given compound concentration is defined as:
100%×[1−(Fcompound/Fblank)]
where Fcompound is the observed fluorescence at a given concentration of test compound and Fblank is the observed fluorescence in the presence of vehicle alone.
The pIC50 value (negative log of the molar concentration of the compound that produces 50% inhibition) of a test compound is calculated by non-linear least squares curve fitting of the equation: […]
to percent inhibition versus compound concentration. The 50% inhibitory concentration (IC50) of a test compound is calculated by raising 10 to the negative pIC50 (10^−pIC50).

Compound | IC50 [µM]
CC(=O)c1cccc(Oc2ccccc2CCC(=O)N2CCNC[C@H]2Cc2ccccc2)c1 [Example 36, (R)-3-(2-(3-Acetylphenoxy)phenyl)-1-(2-benzylpiperazin-1-yl)propan-1-one] | 0.5 to 5
NC(=O)c1cccc(Oc2ccccc2CCC(=O)N2CCNC[C@H]2Cc2ccccc2)c1 [Example 37, (R)-3-(2-(3-(2-benzylpiperazin-1-yl)-3-oxopropyl)phenoxy)benzamide] | 0.5 to 5
CC(=O)NCc1cccnc1Oc1ccccc1CCC(=O)N1CCNC[C@H]1Cc1ccccc1 [Example 38, (R)—N-((2-(2-(3-(2-benzylpiperazin-1-yl)-3-oxopropyl)phenoxy)-pyridin-3-yl)methyl)acetamide] | 0.5 to 5
CC(=O)NCc1c(C)cc(C)nc1Oc1ccccc1CCC(=O)N1CCNC[C@H]1Cc1ccccc1 [Example 39, (R)—N-((2-(2-(3-(2-benzylpiperazin-1-yl)-3-oxopropyl)phenoxy)-4,6-dimethylpyridin-3-yl)methyl)acetamide] | < 0.5
CC(=O)NCc1cc(C)ccc1Oc1ccccc1CCC(=O)N1CCNC[C@H]1Cc1ccccc1 [Example 40, (R)—N-(2-(2-(3-(2-benzylpiperazin-1-yl)-3-oxopropyl)phenoxy)-5-methylbenzyl)acetamide] | < 0.5
COc1ccc(Oc2ccccc2CCC(=O)N2CCNC[C@H]2Cc2ccccc2)c(CNC(C)=O)c1 [Example 41, (R)—N-(2-(2-(3-(2-benzylpiperazin-1-yl)-3-oxopropyl)phenoxy)-5-methoxybenzyl)acetamide] | < 0.5
CC(=O)NCc1ccc(C)nc1Oc1ccc(C)cc1CCC(=O)N1CCNC[C@H]1Cc1ccccc1 [Example 42, (R)—N-((2-(2-(3-(2-benzylpiperazin-1-yl)-3-oxopropyl)-4-methylphenoxy)-6-methylpyridin-3-yl)methyl)acetamide] | 0.5 to 5
CC(=O)NCc1cc(C)ccc1Oc1ccc(C)cc1CCC(=O)N1CCNC[C@H]1Cc1ccccc1 [Example 43, (R)—N-(2-(2-(3-(2-benzylpiperazin-1-yl)-3-oxopropyl)-4-methylphenoxy)-5-methylbenzyl)acetamide] | < 0.5
CC(=O)NCc1ccc(C)nc1Oc1cc(C)ccc1CCC(=O)N1CCNC[C@H]1Cc1ccccc1 [Example 44, (R)—N-((2-(2-(3-(2-benzylpiperazin-1-yl)-3-oxopropyl)-5-methylphenoxy)-6-methylpyridin-3-yl)methyl)acetamide] | 0.5 to 5
CC(=O)NCc1cc(C(F)(F)F)ccc1Oc1cc(C)ccc1CCC(=O)N1CCNC[C@H]1Cc1ccccc1 [Example 45, (R)—N-(2-(2-(3-(2-benzylpiperazin-1-yl)-3-oxopropyl)-5-methylphenoxy)-5-(trifluoromethyl)benzyl)acetamide] | 0.5 to 5
CC(=O)NCc1cc(C)ccc1Oc1cc(C)ccc1CCC(=O)N1CCNC[C@H]1Cc1ccccc1 [Example 46, (R)—N-(2-(2-(3-(2-benzylpiperazin-1-yl)-3-oxopropyl)-5-methylphenoxy)-5-methylbenzyl)acetamide] | < 0.5
CC(=O)NCc1cc(C(F)(F)F)ccc1Oc1ccc(C)cc1CCC(=O)N1CCNC[C@H]1Cc1ccccc1 [Example 47, (R)—N-(2-(2-(3-(2-benzylpiperazin-1-yl)-3-oxopropyl)-4-methylphenoxy)-5-(trifluoromethyl)benzyl)acetamide] | 0.5 to 5
CC(=O)NCCCc1ccccc1Oc1ccccc1CCC(=O)N1CCNC[C@H]1Cc1ccccc1 [Example 48, (R)—N-(3-(2-(2-(3-(2-benzylpiperazin-1-yl)-3-oxopropyl)phenoxy)-phenyl)propyl)acetamide] | 0.5 to 5
CC(=O)NCCc1cc(C)ccc1Oc1ccccc1CCC(=O)N1CCNC[C@H]1Cc1ccccc1 [Example 49, (R)—N-(2-(2-(3-(2-benzylpiperazin-1-yl)-3-oxopropyl)phenoxy)-5-methylphenethyl)acetamide] | < 0.5
Cc1ccc(Oc2ccccc2CCC(=O)N2CCNC[C@H]2Cc2ccccc2)cc1 [Example 50, (R)-1-(2-benzylpiperazin-1-yl)-3-(2-(p-tolyloxy)phenyl)propan-1-one] | < 0.5
COc1ccc(Oc2ccccc2CCC(=O)N2CCNC[C@H]2Cc2ccccc2)cc1 [Example 51, (R)-1-(2-benzylpiperazin-1-yl)-3-(2-(4-methoxyphenoxy)-phenyl)propan-1-one] | 0.5 to 5

Compound | IC50 [µM]
O=C(CCC1(c2ccccc2)CCCCC1=O)N1CCNC[C@H]1Cc1ccccc1 (stereo partly drawn) [Example 52, 2-(3-((R)-2-benzylpiperazin-1-yl)-3-oxopropyl)-2-phenylcyclohexanone] | 5 to 50
O=C(CCc1ccccc1Cc1ccccc1)N1CCNC[C@H]1Cc1ccccc1 [Example 53, (R)-3-(2-benzylphenyl)-1-(2-benzylpiperazin-1-yl)propan-1-one] | < 0.5
Cc1nc(-c2ccc(Cl)cc2)c(CCC(=O)N2CCNC[C@H]2Cc2ccccc2)o1 [Example 54, (R)-1-(2-benzylpiperazin-1-yl)-3-(4-(4-chlorophenyl)-2-methyloxazol-5-yl)propan-1-one] | 5 to 50
O=C(CCc1nc2ccccc2oc1=O)N1CCNC[C@H]1Cc1ccccc1 [Example 55, (R)-3-(3-(2-benzylpiperazin-1-yl)-3-oxopropyl)-2H-benzo[b][1,4]-oxazin-2-one] | 5 to 50
O=C(CCc1ccccc1Cc1ccc(Cl)cc1)N1CCNC[C@H]1Cc1ccccc1 [Example 56, (R)-1-(2-benzylpiperazin-1-yl)-3-(2-(4-chlorobenzyl)phenyl)propan-1-one] | < 0.5
COc1ccccc1OCC(=O)N1CCNC[C@H]1Cc1ccccc1 [Example 57, (R)-1-(2-benzylpiperazin-1-yl)-2-(2-methoxyphenoxy)ethanone] | > 50
O=C(CCN(c1ccccc1)c1ccccc1)N1CCNC[C@H]1Cc1ccccc1 [Example 58, (R)-1-(2-benzylpiperazin-1-yl)-3-(diphenylamino)propan-1-one] | 5 to 50
COc1cc(CCC(=O)N2CCNC[C@H]2Cc2ccccc2)ccc1OC(C)=O [Example 59, (R)-4-(3-(2-benzylpiperazin-1-yl)-3-oxopropyl)-2-methoxyphenyl acetate] | > 50
O=C(CCC(=O)N1CCNC[C@H]1Cc1ccccc1)N(c1ccccc1)c1ccccc1 [Example 60, (R)-4-(2-benzylpiperazin-1-yl)-4-oxo-N,N-diphenylbutanamide] | 0.5 to 5
CC1(C)CC(C(CC(=O)N2CCNC[C@H]2Cc2ccccc2)c2ccccc2)CCO1 (stereo partly drawn) [Example 61, 1-((R)-2-benzylpiperazin-1-yl)-3-(2,2-dimethyltetrahydro-2H-pyran-4-yl)-3-phenylpropan-1-one] | < 0.5
O=C(COc1cccc(Cc2ccccc2)c1)N1CCNC[C@H]1Cc1ccccc1 [Example 62, (R)-2-(3-benzylphenoxy)-1-(2-benzylpiperazin-1-yl)ethanone] | 5 to 50
O=C(CCc1nc(-c2ccccc2)c(-c2ccccc2)o1)N1CCNC[C@H]1Cc1ccccc1 [Example 63, (R)-1-(2-benzylpiperazin-1-yl)-3-(4,5-diphenyloxazol-2-yl)propan-1-one] | 0.5 to 5
O=C(NC1(CC(=O)N2CCNC[C@H]2Cc2ccccc2)CCCCC1)c1ccccc1 [Example 64, (R)—N-(1-(2-(2-benzylpiperazin-1-yl)-2-oxoethyl)cyclohexyl)benzamide] | 5 to 50
O=C(CSC(c1ccccc1)c1ccccc1)N1CCNC[C@H]1Cc1ccccc1 [Example 65, (R)-2-(benzhydrylthio)-1-(2-benzylpiperazin-1-yl)ethanone] | 0.5 to 5
N#CCCc1ccccc1Oc1ccccc1CCC(=O)N1CCNC[C@H]1Cc1ccccc1 [Example 66, (R)-3-(2-(2-(3-(2-benzylpiperazin-1-yl)-3-oxopropyl)phenoxy)phenyl)propanenitrile] | < 0.5
